Measurements published in patent US20240238423A9, “TETRAHYDROISOQUINOLINE HETEROBIFUNCTIONAL BCL-XL DEGRADERS” (Treeline Biosciences, Inc., priority 2022, published 2024).
Read-outs that look alike come from different tables or passages of the source.

Biological target: T1, Human BCL-XL protein (N-terminal HiBiT tagged BCL-XL in HT1080 cells) (Homo sapiens, UniProt Q07817)
T1 construct: expressed in transfected cells; host or cells: HT-1080 (ATCC CCL-121), stably transduced with lentivirus pLV-UBC-N-HiBiT-BCL-XL-PGK-puro and selected with puromycin
Assay: HiBiT based degradation assay
Format: cell-based
Conditions: HT1080 cells expressing HiBiT-BCL-XL; for DC50: BCL-XL degradation
How it was run: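 This HiBiT degradation assay measured loss of BCL-XL in HT1080 cells that stably express an N-terminal HiBiT-BCL-XL fusion delivered by lentivirus. Cells were added to compound-spotted 384-well plates, and luminescence was read on a PHERAstar FSX reader. Signal was expressed relative to DMSO controls, curves were fitted by four-parameter logistic regression, and for hook-shaped curves the Ymin point served as the bottom plateau when calculating EC50.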

[1] = BCL-XL degradation normalized with DMSO control, 24 h

T1 sequence (Q07817 whole entry): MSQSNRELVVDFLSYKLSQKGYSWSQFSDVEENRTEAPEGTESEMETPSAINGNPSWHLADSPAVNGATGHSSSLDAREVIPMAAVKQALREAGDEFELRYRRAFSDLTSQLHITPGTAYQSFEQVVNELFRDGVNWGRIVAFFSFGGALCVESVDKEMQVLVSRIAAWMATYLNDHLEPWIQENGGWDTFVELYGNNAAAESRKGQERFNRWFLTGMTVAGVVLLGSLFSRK

| Structure (SMILES) | Ymin (24 h) [1] | DC50 (24 h, read-out: EC50 (24 h)) [µM] | Ymin (6 h) (BCL-XL degradation normalized with DMSO control, 6 h) | DC50 (6 h, read-out: EC50 (6 h)) [µM] |
| --- | --- | --- | --- | --- |
| Cc1c(O[C@H]2CC[C@H](CCN3CCN(c4ccc5c(C6CCC(=O)NC6=O)nn(C)c5c4)CC3)CC2)cccc1-c1ccc(N2CCc3cccc(C(=O)Nc4nc5ccccc5s4)c3C2)nc1C(=O)O (some centres unmarked) [Compound 211a, 6-(8-(benzo[d]thiazol-2-ylcarbamoyl)-3,4-dihydroisoquinolin-2(1H)-yl)-3-(3-(((1r,4r)-4-(2-(4-(3-(2,6-dioxopiperidin-3-yl)-1-methyl-1H-indazol-6-yl)piperazin-1-yl)ethyl)cyclohexyl)oxy)-2-methylphenyl)picolinic acid] | B (50% ≤ Ymin < 70%) | < 0.1 |  |  |
| Cc1c(O[C@H]2CC[C@H](CC(F)(F)CN3CCN(c4ccc5c(C6CCC(=O)NC6=O)nn(C)c5c4)CC3)CC2)cccc1-c1ccc(N2CCc3cccc(C(=O)Nc4nc5ccccc5s4)c3C2)nc1C(=O)O (some centres unmarked) [Compound 212a, 6-(8-(benzo[d]thiazol-2-ylcarbamoyl)-3,4-dihydroisoquinolin-2(1H)-yl)-3-(3-(((1r,4r)-4-(3-(4-(3-(2,6-dioxopiperidin-3-yl)-1-methyl-1H-indazol-6-yl)piperazin-1-yl)-2,2-difluoropropyl)cyclohexyl)oxy)-2-methylphenyl)picolinic acid] | B (50% ≤ Ymin < 70%) | < 0.1 |  |  |
| Cc1c(OCCCCC2CCN(CC(=O)Nc3cccc4c(C5CCC(=O)NC5=O)nn(C)c34)CC2)cccc1-c1ccc(N2CCc3cccc(C(=O)Nc4nc5ccccc5s4)c3C2)nc1C(=O)O (centres unmarked) [Compound 213, 6-(8-(benzo[d]thiazol-2-ylcarbamoyl)-3,4-dihydroisoquinolin-2(1H)-yl)-3-(3-(4-(1-(2-((3-(2,6-dioxopiperidin-3-yl)-1-methyl-1H-indazol-7-yl)amino)-2-oxoethyl)piperidin-4-yl)butoxy)-2-methylphenyl)picolinic acid] | A (Ymin < 50%) | 0.1 to 1 | C (Ymin ≥ 70%) | 1 to 10 |
| Cc1c(O[C@H]2CC[C@H](CCCC(=O)N3CCN(c4cccc5c(C6CCC(=O)NC6=O)nn(C)c45)CC3)CC2)cccc1-c1ccc(N2CCc3cccc(C(=O)Nc4nc5ccccc5s4)c3C2)nc1C(=O)O (some centres unmarked) [Compound 214a, 6-(8-(benzo[d]thiazol-2-ylcarbamoyl)-3,4-dihydroisoquinolin-2(1H)-yl)-3-(3-(((1s,4r)-4-(4-(4-(3-(2,6-dioxopiperidin-3-yl)-1-methyl-1H-indazol-7-yl)piperazin-1-yl)-4-oxobutyl)cyclohexyl)oxy)-2-methylphenyl)picolinic acid] | B (50% ≤ Ymin < 70%) | < 0.1 |  |  |
| Cc1c(O[C@H]2CC[C@H](CCN3CCN(c4cccc5c(C6CCC(=O)NC6=O)nn(C)c45)CC3)CC2)cccc1-c1ccc(N2CCc3cccc(C(=O)Nc4nc5ccccc5s4)c3C2)nc1C(=O)O (some centres unmarked) [Compound 215a, 6-(8-(benzo[d]thiazol-2-ylcarbamoyl)-3,4-dihydroisoquinolin-2(1H)-yl)-3-(3-(((1r,4r)-4-(2-(4-(3-(2,6-dioxopiperidin-3-yl)-1-methyl-1H-indazol-7-yl)piperazin-1-yl)ethyl)cyclohexyl)oxy)-2-methylphenyl)picolinic acid] | C (Ymin ≥ 70%) | < 0.1 |  |  |
| Cc1c(OCCCC2CCN([C@@H](C)C(=O)Nc3cccc4c(C5CCC(=O)NC5=O)nn(C)c34)CC2)cccc1-c1ccc(N2CCc3cccc(C(=O)Nc4nc5ccccc5s4)c3C2)nc1C(=O)O (stereo partly drawn) [Compound 216a, 6-(8-(benzo[d]thiazol-2-ylcarbamoyl)-3,4-dihydroisoquinolin-2(1H)-yl)-3-(3-(3-(1-((2S)-1-((3-(2,6-dioxopiperidin-3-yl)-1-methyl-1H-indazol-7-yl)amino)-1-oxopropan-2-yl)piperidin-4-yl)propoxy)-2-methylphenyl)picolinic acid] | B (50% ≤ Ymin < 70%) | < 0.1 |  |  |
